In patent US20040002521A1, “Cyclopropanecarboxylic acid amide compound and pharmaceutical use thereof” (AJINOMOTO CO. INC, priority 2000, published 2004):
In brackets after ≈: the same amount, converted by molar mass.

Test system: NF-kappa B
Assay: Evaluation of NF-kappa B inhibition (β-gal reporter driven by 6 NF-kappa B binding sequences in immortalized HUVEC, IL-1β induced)
Assay type: cell-based
Conditions: Homo sapiens; HUVEC reporter cells; compound added 30 minutes before IL-1β; β-gal activity determined after 16 hours; read-out: NF-kappa B Inhibitory Activity: IC50
From the text: Evaluation of NF-kappa B Inhibition
In this evaluation, there were used cells obtained by stably introducing β-galactosidase (β-gal) gene of Escherichia coli, which was driven by an SV40 minimum promoter produced by fusing 6 NF-kappa B binding sequences derived from the kappa light chain enhancer of immunoglobulin arranged in a tandem to human normal umbilical venous endothelial cells (HUVEC) immortalized with an SV40 large-sized T-antigen. These cells were subjected to the subculture in an RPMI culture medium supplemented with 10% FBS (fetal bovine serum) and the cells were inoculated in wells of a 96-well plate in a concentration of 1×10^4 cells/well on the day before the initiation of the experiments. Each candidate compound of the present invention was dissolved in DMSO in an adequate concentration and then added to each well of the 96-well plate in such a manner that the final concentration of DMSO was adjusted to a level of not more than 1%. After 30 minutes from the addition of the compound, a […] IL-1β was added to each well to a final concentration of 50 ng/ml to thus induce the NF-kappa B activity and the β-gal activity was determined after 16 hours therefrom. The β-gal activity was determined using a chemiluminescent substrate (Galacton-Light-Plus available from Boehringer Manheim Company), which was used according to the protocols annexed to the reagent, and Luminescencer (available from ATO Company).

Row | SMILES | IC50
1 | CC1(C)CC1C(=O)Nc1ccc(Nc2ccccc2)cc1 (stereo not shown) [Example 12, 2,2-Dimethyl-cyclopropanecarboxylic acid (4-phenylamino-phenyl)-amide] | 2 mg/L (≈ 7.13 µM)
2 | CC1(C)CC1C(=O)Nc1ccc(Cc2ccccc2)cc1 (stereo not shown) [Example 1, 2,2-Dimethyl-cyclopropanecarboxylic acid (4-benzylphenyl)-amide] | 3 mg/L (≈ 10.7 µM)
3 | CC1(C)CC1C(=O)Nc1ccc(Oc2ccc(Cl)cc2)cc1 (stereo not shown) [Example 9, 2,2-Dimethyl-cyclopropanecarboxylic acid [4-(4-chlorophenoxy)-phenyl]-amide] | 5 mg/L (≈ 15.8 µM)
4 | Cc1ccc(NC(=O)C2CC2(C)C)cc1 (stereo not shown) [Example 2, 2,2-Dimethyl-cyclopropanecarboxylic acid p-tolylamide] | 3 mg/L (≈ 14.8 µM)
